Measurements published in ChEMBL document CHEMBL1151911, “A microwave-assisted facile regioselective Fischer indole synthesis and antitubercular evaluation of novel 2-aryl-3,4-dihydro-2H-thieno[3,2-b]indoles” (2009).
Converted amounts (≈) assume the structure as drawn.

System: Mycobacterium tuberculosis
Assay: Antimycobacterial activity against Mycobacterium tuberculosis H37Rv
Format: functional

Compound	MIC [mg/L]
Clc1ccc(C2Cc3[nH]c4ccc(Cl)cc4c3S2)c(Cl)c1 (stereo unspecified)	0.78 (≈ 2.2 µM)
Fc1ccc2[nH]c3c(c2c1)SC(c1ccc(Cl)cc1)C3 (stereo unspecified)	1.56 (≈ 5.14 µM)
Cc1ccc(C2Cc3[nH]c4ccc(F)cc4c3S2)cc1 (stereo unspecified)	3.13 (≈ 11 µM)
CC(C)c1ccc(C2Cc3[nH]c4ccccc4c3S2)cc1 (stereo unspecified)	0.78 (≈ 2.66 µM)
Clc1ccc(C2Cc3[nH]c4ccccc4c3S2)cc1 (stereo unspecified)	12.5 (≈ 43.7 µM)
CO[C@H]1/C=C/O[C@@]2(C)Oc3c(C)c(O)c4c(O)c(c(/C=N/N5CCN(C)CC5)c(O)c4c3C2=O)NC(=O)/C(C)=C\C=C\[C@H](C)[C@H](O)[C@@H](C)[C@@H](O)[C@@H](C)[C@H](OC(C)=O)[C@@H]1C [RIFAMPIN]	0.1 (≈ 0.122 µM)
Fc1ccc(C2Cc3[nH]c4ccc(Cl)cc4c3S2)cc1 (stereo unspecified)	3.13 (≈ 10.3 µM)
O=[N+]([O-])c1cccc(C2Cc3[nH]c4ccccc4c3S2)c1 (stereo unspecified)	1.76 (≈ 5.94 µM)
NNC(=O)c1ccncc1 [ISONIAZID]	0.05 (≈ 0.365 µM)
CC[C@@H](CO)NCCN[C@@H](CC)CO [ETHAMBUTOL]	1.56 (≈ 7.64 µM)
Fc1cccc(C2Cc3[nH]c4ccccc4c3S2)c1 (stereo unspecified)	3.13 (≈ 11.6 µM)
Clc1ccc2[nH]c3c(c2c1)SC(c1ccccc1Cl)C3 (stereo unspecified)	3.13 (≈ 9.77 µM)
CC(C)c1ccc(C2Cc3[nH]c4ccc(Cl)cc4c3S2)cc1 (stereo unspecified)	0.78 (≈ 2.38 µM)
Cc1ccc(C2Cc3[nH]c4ccc(Cl)cc4c3S2)cc1 (stereo unspecified)	6.25 (≈ 20.8 µM)
Fc1ccc2[nH]c3c(c2c1)SC(c1ccccc1Cl)C3 (stereo unspecified)	1.76 (≈ 5.79 µM)
Brc1ccccc1C1Cc2[nH]c3ccccc3c2S1 (stereo unspecified)	3.13 (≈ 9.48 µM)
Clc1ccc2[nH]c3c(c2c1)SC(c1ccccc1)C3 (stereo unspecified)	12.5 (≈ 43.7 µM)
Cc1ccc(C2Cc3[nH]c4ccccc4c3S2)cc1 (stereo unspecified)	6.25 (≈ 23.6 µM)
Clc1ccc(C2Cc3[nH]c4ccc(Cl)cc4c3S2)cc1 (stereo unspecified)	12.5 (≈ 39 µM)
NC(=O)c1cnccn1 [PYRAZINAMIDE]	6.25 (≈ 50.8 µM)
Clc1ccccc1C1Cc2[nH]c3ccccc3c2S1 (stereo unspecified)	6.25 (≈ 21.9 µM)
c1ccc(C2Cc3[nH]c4ccccc4c3S2)cc1 (stereo unspecified)	25 (≈ 99.5 µM)
Fc1ccc2[nH]c3c(c2c1)SC(c1ccccc1)C3 (stereo unspecified)	6.25 (≈ 23.2 µM)
Clc1ccc(C2Cc3[nH]c4ccccc4c3S2)c(Cl)c1 (stereo unspecified)	1.76 (≈ 5.5 µM)
CC(C)c1ccc(C2Cc3[nH]c4ccc(F)cc4c3S2)cc1 (stereo unspecified)	0.78 (≈ 2.5 µM)
Fc1ccc2[nH]c3c(c2c1)SC(c1ccc(Cl)cc1Cl)C3 (stereo unspecified)	0.4 (≈ 1.18 µM)
